The values that follow come from article PMC7727793, “Aggregation Behavior, Antibacterial Activity and Biocompatibility of Catanionic Assemblies Based on Amino Acid-Derived Surfactants” (International Journal of Molecular Sciences, 2020).

The subject of series [1] is 3T3 cell line. Kind of series: NRU cell viability assay. It counts as cell-based, murine. As to conditions: 3T3, NRU, 24 h. On the procedure:
(§1) The murine Swiss albino fibroblast (3T3), the squamous carcinoma (A431), the immortal human keratinocyte (HaCaT) and the human epithelial carcinoma (HeLa) cell lines were obtained from Celltec UB. Cells were grown in Dulbecco’s Modified Eagle’s Medium (DMEM) (4.5 g/L glucose) supplemented with 10% (v/v) fetal bovine serum (FBS), 1% (v/v) L-glutamine solution (200 mM) and 1% (v/v) penicillin-streptomycin solution (10,000 U/mL penicillin and 10 mg/mL streptomycin) at 37 °C and 5% CO2 (CO2 Incubator Nuaire, Plymouth, MN, USA). All the biological materials were purchased from Lonza (Verviers, Belgium). Cells were cultured in 75 cm^2 culture flasks (TPP, Trasadingen, Switzerland) and were routinely split using trypsin-EDTA (ethylenediaminetetraacetate) solution (170,000 U/L trypsin and 0.2 g/L EDTA) (Lonza, Verviers, Belgium) when cells are approximately 80% confluent. 3T3 and HaCaT cells (1 × 10^5 cells/ mL) and HeLa and A431 cells (5 × 10^4 cells/mL) were grown at the defined densities into the central 60 wells of a 96-well plate. Cells were incubated for 24 h under 5% CO2 at 37 °C. […] Agitation, determination of the absorbance of the extracted solution and effect of each treatment in comparison with control cells were analogous of those described in the case of the MTT method.

Series [2] can be described thus: Surface tension, hanging drop tensiometer. As to conditions: 25 °C; for Surface tension (γ) at CMC: estimated error 1 mNm^−1; for CMC obtained by surface tension (CMCγ): estimated error 10%; for Area per molecule (Am): Gibbs adsorption isotherm using n = 1, estimated error 15%. It counts as physicochemical. The protocol: Surface tension was measured at 25 °C using a homemade hanging drop tensiometer. Samples were hanged from a straight-cut Teflon tube and the size and shape were obtained from pictures as a function of time. Surface tension was obtained from fitting the drop profile to the appropriate Young-Laplace equations. See Sorrenti et al. for more details. From a concentrated clear solution, successive dilutions were made to cover the adequate range of surface tension changes. The surface tension of […]14 was measured in three pH conditions: (a) unbuffered, using water as solvent, (b) buffered at pH = 2, using 10 mM HCl solution to prepare the concentrated sample and their dilutions and (c) buffered at pH = 12, using 10 mM […] to prepare the concentrated solution and their dilutions.

Series [3] has as its system HaCaT cell line. In words: MTT cell viability assay. It counts as cell-based, human. The following applies: 24 h. On the procedure: (§2) The murine Swiss albino fibroblast (3T3), the squamous carcinoma (A431), the immortal human keratinocyte (HaCaT) and the human epithelial carcinoma (HeLa) cell lines were obtained from Celltec UB. Cells were grown in Dulbecco’s Modified Eagle’s Medium (DMEM) (4.5 g/L glucose) supplemented with 10% (v/v) fetal bovine serum (FBS), 1% (v/v) L-glutamine solution (200 mM) and 1% (v/v) penicillin-streptomycin solution (10,000 U/mL penicillin and 10 mg/mL streptomycin) at 37 °C and 5% CO2 (CO2 Incubator Nuaire, Plymouth, MN, USA). All the biological materials were purchased from Lonza (Verviers, Belgium). Cells were cultured in 75 cm^2 culture flasks (TPP, Trasadingen, Switzerland) and were routinely split using trypsin-EDTA (ethylenediaminetetraacetate) solution (170,000 U/L trypsin and 0.2 g/L EDTA) (Lonza, Verviers, Belgium) when cells are approximately 80% confluent.
(§3) 3T3 and HaCaT cells (1 × 10^5 cells/ mL) and HeLa and A431 cells (5 × 10^4 cells/mL) were grown at the defined densities into the central 60 wells of a 96-well plate. Cells were incubated for 24 h under 5% CO2 at 37 °C. Then, the spent medium was removed, and cells were incubated during 24 h with the corresponding surfactant systems, previously diluted 50% (v/v) in DMEM medium supplemented with 5% FBS (100 µL).
(§4) In this assay, living cells reduce the yellow tetrazolium salt, 2,5-Diphenyl-3, -(4,5-dimethyl-2-thiazolyl) tetrazolium bromide (MTT), to insoluble purple formazan crystals. After the cells were incubated for 24 h with the corresponding systems, the medium was removed and 100 µL (5 mg/mL) of 2,5-Diphenyl-3,-(4,5-dimethyl-2-thiazolyl) tetrazolium bromide (MTT) (Sigma–Aldrich, St. Louis, MO, USA) in phosphate-buffered saline (PBS) (Lonza, Verviers, Belgium), diluted 1:10 in culture medium without phenol red and absence of FBS (Lonza, Verviers, Belgium), was added to the cells. The plates were incubated for 3 h, after which the medium was removed. Thereafter, 100 µL of dimethylsulfoxide (DMSO) (Sigma–Aldrich, St. Louis, MO, USA) was added to each well to dissolve the purple formazan crystals. Plates were then placed in a microtiter-plate shaker for 5 min at room temperature to help the total dissolution. Then, the absorbance of the resulting solutions was measured at 550 nm using a Bio-Rad 550 microplate reader (Hercules, California, USA). The effect of each treatment was calculated as the percentage of tetrazolium salt reduction by viable cells against the untreated cell control (cells with medium only).
On the technique in general: Tetrazolium assays rely on reduction of a dye to a coloured formazan, in cell work by metabolically active cells.

Another series relates to HeLa cell line. Kind of series: MTT cell viability assay. It counts as cell-based, human. The following applies: 24 h. The protocol: as §2, §3, §4
Series [4] is described as follows: Pyrene fluorescence (II/IIII ratio) CMC determination. It counts as physicochemical. As to conditions: pyrene probe, 25 °C; estimated error 10%. The protocol: Fluorescence measurements were carried out using a Shimadzu RF 540 spectrofluorometer (Shimadzu, Kyoto, Japan). Pyrene (Sigma-Aldrich, San Luis, MO, USA) was utilized as a fluorescence probe at 25 °C. From a 5 mM solution of catanionic formulations prepared in a pyrene aqueous solution (10^−6 M), different dilutions were prepared. The fluorescence emission spectra of these binary mixtures were acquired from 340 to 450 nm after excitation at 332 nm. The ratio of the first to the third vibronic peaks (II/IIII) in the emission spectra of pyrene is sensitive to the polarity of the microenvironment and the CMC can be calculated from plots of II/IIII as a function of surfactant concentration.

Series [5] deals with HaCaT cell line. In words: NRU cell viability assay. It counts as cell-based, human. The following applies: 24 h. On the procedure: as §1
Series [6] deals with 3T3 cell line. In words: MTT cell viability assay. It counts as cell-based, murine. As to conditions: 3T3, MTT, 24 h. On the procedure:
as §2, with “confluent. […]” for “confluent.”
(§5) In this assay, living cells reduce the yellow tetrazolium salt, 2,5-Diphenyl-3, -(4,5-dimethyl-2-thiazolyl) tetrazolium bromide (MTT), to insoluble purple formazan crystals. […] Then, the absorbance of the resulting solutions was measured at 550 nm using a Bio-Rad 550 microplate reader (Hercules, California, USA). The effect of each treatment was calculated as the percentage of tetrazolium salt reduction by viable cells against the untreated cell control (cells with medium only).

The test system of another series is A431 cell line. In words: MTT cell viability assay. It counts as cell-based. The protocol:
as §2, with “confluent. […]” for “confluent.”
as §5

What is called IC50 is the midpoint of a concentration-inhibition curve. Turning to `CCCCCCCCCCCCCC(=O)O` [Sodium myristate, sodium myristate], the IC50 in the series on 3T3 cell line [1] (Mus musculus, NIH3T3) is over 50 µM; with HaCaT cell line [3] (Homo sapiens) it was over 50 µM; with HeLa cell line (Homo sapiens) it was over 50 µM; in the series on HaCaT cell line [5] (Homo sapiens), over 50 µM; in the series with 3T3 cell line [6] (Mus musculus, NIH3T3) it was over 50 µM; in the series on A431 cell line (Homo sapiens, A-431, 24 h), over 50 µM. In series [2], the “Surface tension (γ) at CMC” value is given as 24 mNm^−1. Besides, in series [2], the “CMC obtained by surface tension (CMCγ)” value was 5.0 ^7 mM. In addition, in series [2], the “Area per molecule (Am)” value is listed as 1.0 nm^2. In series [4], the “CMC obtained by Fluorescence (CMCF)” value was 0.90 mM.

With “N(π),N(τ)-bis(methyl)-L-Histidine tetradecyl amide [DMHNHC14]”, the IC50 in the series with 3T3 cell line [1] worked out at 26.1 µM; in the series with HaCaT cell line [3], 25.5 µM; in the series with HeLa cell line, 3.37 µM; with HaCaT cell line [5], 45.7 µM; with 3T3 cell line [6], 17.1 µM; in the series on A431 cell line (24 h), 22.6 µM. In addition, the “Surface tension (γ) at CMC” value in series [2] was 33 mNm^−1. Besides, in series [2], the “CMC obtained by surface tension (CMCγ)” value was 5.2 mM. The “Area per molecule (Am)” value in series [2] is given as 0.57 nm^2. Moreover, the “CMC obtained by Fluorescence (CMCF)” value in series [4] is listed as 3.8 mM.
